pIC50: −log10 of the molar value.
Tests used:
CDK2/CyclinA = CDK2/CyclinA (Homo sapiens, UniProt P24941); test: Kinase inhibition assay (ADP-Glo); format: biochemical; conditions: 10 µM ATP
Description: HsCDK2/CyclinA (human, cyclin-dependent kinase-2, kindly provided by Dr. A. Echalier-Glazer, Leicester, UK) was assayed in buffer A with 0.8 µg/µL of histone H1 as substrate.

HASPIN = target: T1, HASPIN (Homo sapiens, UniProt Q8TF76); test: Kinase inhibition assay (ADP-Glo); format: biochemical; conditions: 10 µM ATP
T1 construct: kinase domain, amino acids 470 to 798; made in house; host or cells: bacteria
T1 sequence (Q8TF76 470-798): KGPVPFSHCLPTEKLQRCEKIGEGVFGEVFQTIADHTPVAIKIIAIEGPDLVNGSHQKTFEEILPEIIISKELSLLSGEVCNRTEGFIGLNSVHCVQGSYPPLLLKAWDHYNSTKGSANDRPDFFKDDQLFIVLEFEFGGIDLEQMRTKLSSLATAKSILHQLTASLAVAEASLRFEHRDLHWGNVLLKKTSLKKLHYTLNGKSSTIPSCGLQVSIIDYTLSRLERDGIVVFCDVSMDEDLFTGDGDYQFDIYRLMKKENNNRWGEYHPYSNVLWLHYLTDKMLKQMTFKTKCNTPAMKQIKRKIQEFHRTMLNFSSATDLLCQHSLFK
Description: HsHASPIN (human, kinase domain, amino acids 470 to 798, recombinant, expressed in bacteria) was assayed in buffer A with 0.007 µg/µL of Histone H3 (1-21) peptide ([…]) as substrate;

CLK1 = target: T2, CLK1 (Mus musculus, UniProt P22518); test: Kinase inhibition assay (ADP-Glo); format: biochemical; conditions: 10 µM ATP
T2 construct: made in house; host or cells: bacteria
T2 sequence (P22518 whole entry): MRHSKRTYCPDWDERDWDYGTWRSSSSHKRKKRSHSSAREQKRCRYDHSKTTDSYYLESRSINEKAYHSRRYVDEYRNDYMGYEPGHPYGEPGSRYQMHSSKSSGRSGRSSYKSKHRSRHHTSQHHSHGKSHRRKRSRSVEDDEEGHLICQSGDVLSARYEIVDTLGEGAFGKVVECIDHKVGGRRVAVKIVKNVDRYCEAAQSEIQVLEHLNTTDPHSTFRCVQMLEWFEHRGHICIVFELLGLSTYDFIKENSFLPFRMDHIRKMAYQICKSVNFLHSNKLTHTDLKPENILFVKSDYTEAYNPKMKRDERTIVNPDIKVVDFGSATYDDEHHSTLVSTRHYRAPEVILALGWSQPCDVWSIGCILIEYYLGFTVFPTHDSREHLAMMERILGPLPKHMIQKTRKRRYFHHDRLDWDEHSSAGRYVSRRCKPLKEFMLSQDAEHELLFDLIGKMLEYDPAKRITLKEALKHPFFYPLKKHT
Description: MmCLK1 (from Mus musculus, recombinant, expressed in bacteria) was assayed in buffer A with 0.027μg/µL of the following peptide: GRSRSRSRSRSR as substrate.

HL-60 cells [1] = test: Mitochondrial transmembrane potential (rhodamine 123), flow cytometry; format: cell-based, human; conditions: 72 h
Description: In this sense, in order to evaluate if compounds 3c and 4a induce apoptosis by alterating the mitochondria transmembrane potential, this assay was performed by flow cytometry using the fluorochrome rhodamine 123, because this is able to accumulate in cells with unchanged mitochondrial transmembrane potential.
(§1) HL-60 cells (3 × 10^5) were plated in 24-well plates and treated with the compounds 3c (13 and 26 μM) and 4a (11 and 22 μM) for 72 h at 37 °C with 5% CO2. In all trials, doxorubicin was used as a positive control. After the incubation period, an aliquot of 500 μL of treated and untreated cells suspension was transferred to an Eppendorf tube and centrifuged to remove the supernatant and continue the protocol of the test. In the cell viability and annexin V assays, kits were used, ViaCount kit and guava nexin kit (Guava Technologies), respectively. The protocols performed in these tests followed the manufacturer’s instructions. For to analyze mitochondrial depolarization, rhodamine 123 fluorescent dye was used. In the assay for cell cycle analysis and DNA fragmentation propidium iodide was used. The experiments were performed on Guava EasyCyte HT (Merck-Millipore) flow cytometer, acquiring 5000 events. The data were analyzed in Guava-Soft™ software version 2.7. Three independent experiments were performed in triplicate.

HL-60 cells [2] = test: Cell cycle assay (propidium iodide), flow cytometry; format: cell-based, human; conditions: 72 h
Description: In order to improve the study of the mechanism of death induction by compounds 3c and 4a in HL-60 cells, a test was performed on the flow cytometer after staining with propidium iodide to evaluate the effect of the compounds on cell cycle progression (Figure 6).
as §1

HL-60 cells [3] = test: DNA fragmentation assay (sub-G1, propidium iodide); format: cell-based, human; conditions: 72 h
Text: DNA fragmentation is initiated after chromatin condensation and depends on several variables, such as the time required for the depolarization of the mitochondria and activation of the caspase cascade. In response to DNA damage the p53 protein is activated causing cell cycle arrest in G1 [57]. At flow cytometry the apoptotic cells with fragmented DNA can be identified as the sub-G1 population, seen to the left of the G1 peak. Thus, using the fluorochrome propidium iodide and the same principle of the cell cycle test, an assay was performed to identify HL-60 cells with fragmented DNA (Figure 7).
as §1

[4] = system: K562, HL-60, MOLT-4, HEp-2, NCI-H292, HT-29 and MCF-7 tumor cell lines; test: Cytotoxic screening against the panel of tumor cell lines (MTT); format: cell-based, human; conditions: Homo sapiens; range over the seven tumor cell lines, 72 h; read-out: IC50 values across all tested cell lines
Description: The cytotoxicity assessment was performed against three human cancer cell lines in suspension (K562, HL-60 and MOLT-4) and four adhered (HEp-2, NCI-H292, HT-29 and MCF-7).
The cells were obtained from the Cell Bank of Rio de Janeiro and maintained in the Laboratory of Cell Culture of the Department of Antibiotics of the Federal University of Pernambuco. The lines K562 (myeloblastic leukaemia), HL-60 (promyelocytic leukemia) and MOLT-4 (lymphoblastic leukemia) were cultured in RPMI 1640 medium and the lines HEp-2 (larynx carcinoma), NCI-H292 (lung carcinoma), HT-29 (colon adenocarcinoma) and MCF-7 (breast adenocarcinoma) were cultured in DMEM medium, supplemented with 10% fetal bovine serum, 2 mM glutamine, 100 U/mL penicillin and 100 μg/mL streptomycin (Gibco™ Life Technologies), at 37 °C and 5% CO2.
The evaluation of the cytotoxicity of the compounds was performed by the method of 3-(4,5-dimethyl-2-thiazolyl)-2,5-diphenyl-2H-tetrazolium bromide (MTT) (Sigma Aldrich Co., St. Louis, MO, USA). To perform the assay the cells were seeded in 96-well plates at the following concentrations: HL-60 and K562 (0.3 × 10^6 cells/mL); MOLT-4 and PBMC (10^6 cells/mL); NCI-H292, HT-29, HEp-2 e MCF-7 (10^5 cells/mL). Briefly, the compounds previously dissolved in DMSO (dimethylsulfoxide, Vetec, São Paulo, Brazil), were diluted in medium and added to each well at the desired concentrations. For the calculation of the concentration that inhibits 50% of cell growth (IC50) the compounds were serially diluted to obtain the final concentrations between 0.19–25 μg/mL. Doxorubicin was used as the standard in the concentration range between (0.078–10 μg/mL). After 72 h of contact of the cells with the compounds, it was added to each well 25 μL of MTT solution (5 mg/mL). […] To perform the reading, 100 μL of DMSO was added in each well for the dissolution of the formazan crystals. The amount of formazan was measured by reading the plate at 560 nm absorbance. The IC50 was calculated from the nonlinear regression in the Prisma 7.0 software (GraphPad, San Diego, CA, USA). […]

[5] = target: panel of ten different protein kinases; test: Kinase inhibition, panel of ten protein kinases; format: biochemical; conditions: 3c: except towards HASPIN, CK1 and GSK3; inactive = IC50 > 10 μM; read-out: IC50 across the kinase panel
Text: A panel of ten native or recombinant protein kinases was used during this study: […]

Compound | pIC50 (CDK2/CyclinA) | pIC50 (HASPIN) | pIC50 (CLK1) | depolarized cells (HL-60 cells [1]; 13 μM) [%] | depolarized cells (HL-60 cells [1]; 26 μM) [%] | cells in G1 phase (HL-60 cells [2]; 13 μM) [%] | cells in G1 phase (HL-60 cells [2]; 26 μM) [%] | cells with DNA fragmentation (HL-60 cells [3]; 13 μM) [%] | cells with DNA fragmentation (HL-60 cells [3]; 26 μM) [%] | pIC50 [4] | pIC50 [5] | depolarized cells (HL-60 cells [1]; 22 μM) [%] | cells in G1 phase (HL-60 cells [2]; 11 μM) [%] | cells in G1 phase (HL-60 cells [2]; 22 μM) [%] | cells with DNA fragmentation (HL-60 cells [3]; 11 μM) [%] | cells with DNA fragmentation (HL-60 cells [3]; 22 μM) [%]
NC(=O)N/N=C/c1c(O)ccc2ccccc12 [Compound 3c, 2-Hydroxynaphthaldehyde Semicarbazone] | 6.28 | < 5.00 | 6.54 | 30.9 | 34.2 | 63.3 | 66.2 | 3.2 | 7.5 | 4.25 to 4.88 | 5.29 to 7.14 |  |  |  |  | 
Cc1ccc(C=NNC(N)=O)cc1 [Compound 3g, 4-Methylbenzaldehyde Semicarbazone] | < 5.00 | < 5.00 | < 5.00 |  |  |  |  |  |  |  | < 5.00 |  |  |  |  | 
CCCCN(N=Cc1ccc([N+](=O)[O-])o1)C(N)=O [Compound 4a, 5-Nitro-2-(N^2-n-butyl)furfuraldehyde Semicarbazone] | < 5.00 | < 5.00 | < 5.00 |  |  |  |  |  |  | 4.42 to 4.94 |  | 59.3 | 62.7 | 81.9 | 7.0 | 40.3
